The text below walks through data of PMC6449406, “Classification of the human phox homology (PX) domains based on their phosphoinositide binding specificities” (Nature Communications, 2019).

Data set [1] deals with T1, SNX25 PX domain (Homo sapiens, UniProt Q9H3E2).
T1 construct: PX domain only, 15N-labelled, from GST fusion in E. coli
T1 sequence (Q9H3E2 506-628): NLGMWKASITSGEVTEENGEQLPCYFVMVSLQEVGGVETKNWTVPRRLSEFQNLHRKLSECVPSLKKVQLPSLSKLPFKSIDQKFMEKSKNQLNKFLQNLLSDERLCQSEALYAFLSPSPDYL
The data set is described as follows: 1H-15N HSQC NMR titration. Format: binding. To be noted: pH 7.0, 100 mM NaCl, 298 K; secondary site (Lys734).

The target in another data set is T2, SNX1 (Homo sapiens, UniProt Q13596).
T2 construct: PX domain only, N-terminal GST removed by thrombin, E. coli
Put plainly: biochemical. More on the design: ITC, soluble phosphoinositide headgroup analogue titrated into purified PX domain, 1:1 fit. To be noted: ITC, 20 uM PX domain in cell. The text has this:
(§1) We next used isothermal titration calorimetry (ITC) to measure the binding of selected PX domains to soluble phosphoinositide headgroup analogues (Supplementary Figures 2, 3; Supplementary Table 4). These experiments quantitatively supported the results of the liposome pelleting assays for all of the PX domains tested. As an orthogonal method of quantitation, we used biolayer interferometry (BLItz) to measure the interactions of PX proteins with different phosphoinositide-containing membranes (Supplementary Figures 4, 5; Supplementary Table 5). In these experiments, liposomes containing a small amount of biotinylated lipids were coupled to streptavidin sensors, and dipped into solutions containing the PX domains at a single concentration of 20 μM. Again, the results of these liposome-binding experiments using BLItz correlated well with both ITC and liposome pelleting assays. The dissociation constants derived from BLItz analyses were generally in agreement with those from ITC and correlated well with the qualitative interactions observed in pelleting assays. As summarized in Supplementary Table 1, many previous reports have described interactions of human PX domain proteins with a variety of different phosphoinositide lipids, as well as other lipids such as phosphatidylserine (PS) and phosphatidic acid (PA) that may promote recruitment to various cellular organelles and membrane domains. Our aim was to perform parallel comparisons of as many human PX domains as possible, using qualitative and quantitative approaches to measure binding to both membrane mimetics and soluble phosphoinositide headgroups. […] Samples were subjected to ultracentrifugation followed by SDS-PAGE and Coomassie staining of the unbound supernatant (S) and bound pellet (P) fractions. b Water-soluble PtdIns3P and PtdIns(3,4)P2 headgroup analogues (500 μM) were titrated into the SGK3 PX domain (20 μM) and measured by ITC. […]

For the next data set, the target named is T3, SNX2 (Homo sapiens, UniProt O60749).
T3 construct: PX domain only, N-terminal GST removed by thrombin, E. coli
T3 sequence (O60749 140-269 limits assumed): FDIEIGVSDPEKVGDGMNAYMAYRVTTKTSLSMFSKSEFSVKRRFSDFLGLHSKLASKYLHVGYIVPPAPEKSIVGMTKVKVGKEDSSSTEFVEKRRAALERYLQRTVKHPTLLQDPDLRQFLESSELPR
The data set is described as follows: biochemical. Also noted: ITC, soluble phosphoinositide headgroup analogue titrated into purified PX domain, 1:1 fit. As to conditions: ITC, 20 uM PX domain in cell.
Text: as §1

The target of data set [2] is T1, SNX25 PX domain. Put plainly: biochemical. Also noted: ITC, soluble phosphoinositide headgroup analogue titrated into purified PX domain, 1:1 fit. As to conditions: ITC, 20 uM PX domain in cell.
Text: as §1

Another data set concerns the target T4, SNX23 (Homo sapiens, UniProt Q96L93).
T4 construct: gene KIF16B; PX domain, GST removed
T4 sequence (Q96L93 1-1317): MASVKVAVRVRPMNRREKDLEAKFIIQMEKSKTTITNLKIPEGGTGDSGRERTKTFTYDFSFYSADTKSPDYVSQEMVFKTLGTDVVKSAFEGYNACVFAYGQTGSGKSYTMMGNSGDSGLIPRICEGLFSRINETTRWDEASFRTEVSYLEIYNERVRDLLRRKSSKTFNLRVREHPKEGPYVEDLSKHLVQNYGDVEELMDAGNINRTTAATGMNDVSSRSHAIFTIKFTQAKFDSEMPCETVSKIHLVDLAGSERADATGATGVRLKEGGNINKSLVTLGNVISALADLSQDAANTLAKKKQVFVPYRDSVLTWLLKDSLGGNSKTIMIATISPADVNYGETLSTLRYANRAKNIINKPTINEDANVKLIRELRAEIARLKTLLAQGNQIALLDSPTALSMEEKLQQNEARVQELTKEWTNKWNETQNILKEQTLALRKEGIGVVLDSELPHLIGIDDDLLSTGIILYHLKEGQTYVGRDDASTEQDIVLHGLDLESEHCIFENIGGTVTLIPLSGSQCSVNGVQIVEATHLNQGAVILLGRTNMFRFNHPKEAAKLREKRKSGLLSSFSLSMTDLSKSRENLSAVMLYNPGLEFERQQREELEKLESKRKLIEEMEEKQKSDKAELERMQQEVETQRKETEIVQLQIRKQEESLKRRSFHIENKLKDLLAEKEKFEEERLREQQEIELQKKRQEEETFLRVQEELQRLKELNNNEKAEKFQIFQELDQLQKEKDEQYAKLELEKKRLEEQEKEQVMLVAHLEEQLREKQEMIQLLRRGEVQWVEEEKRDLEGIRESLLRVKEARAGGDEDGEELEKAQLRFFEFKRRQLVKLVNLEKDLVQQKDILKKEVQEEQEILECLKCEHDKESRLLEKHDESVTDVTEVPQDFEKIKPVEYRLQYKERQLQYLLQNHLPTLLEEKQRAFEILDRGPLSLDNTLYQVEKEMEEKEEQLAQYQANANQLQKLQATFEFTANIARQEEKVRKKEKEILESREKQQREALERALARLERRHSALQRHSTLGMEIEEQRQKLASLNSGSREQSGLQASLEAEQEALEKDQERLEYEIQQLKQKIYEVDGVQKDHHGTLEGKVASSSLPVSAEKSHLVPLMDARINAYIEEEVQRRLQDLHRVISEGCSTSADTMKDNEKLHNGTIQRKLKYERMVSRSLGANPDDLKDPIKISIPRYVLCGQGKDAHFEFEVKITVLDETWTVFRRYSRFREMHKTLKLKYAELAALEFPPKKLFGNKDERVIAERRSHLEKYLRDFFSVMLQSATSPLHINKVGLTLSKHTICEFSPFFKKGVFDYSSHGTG
Put plainly: biochemical. Also noted: ITC titration of soluble phosphoinositide headgroup analogue into PX domain, Kd. An excerpt: We next used isothermal titration calorimetry (ITC) to measure the binding of selected PX domains to soluble phosphoinositide headgroup analogues (Supplementary Figures 2, 3; Supplementary Table 4). These experiments quantitatively supported the results of the liposome pelleting assays for all of the PX domains tested. As an orthogonal method of quantitation, we used biolayer interferometry (BLItz) to measure the interactions of PX proteins with different phosphoinositide-containing membranes (Supplementary Figures 4, 5; Supplementary Table 5). In these experiments, liposomes containing a small amount of biotinylated lipids were coupled to streptavidin sensors, and dipped into solutions containing the PX domains at a single concentration of 20 μM. Again, the results of these liposome-binding experiments using BLItz correlated well with both ITC and liposome pelleting assays. The dissociation constants derived from BLItz analyses were generally in agreement with those from ITC and correlated well with the qualitative interactions observed in pelleting assays. Supplementary Information Supplementary Table 1. Previously reported structures and PtdInsP-binding specificities of mammalian PX proteins. Supplementary Table 2. PX domain constructs used in this study. Supplementary Table 3. […] PX domain binding to phosphoinositides measured by ITC.

Data set [3] concerns the molecule itself. The data set is described as follows: SEC; analytical gel filtration, Superdex 200 10/300, 50 mM Tris (pH 8.0), 100 mM NaCl, 2 mM DTT; 100 µl of SNX15 PX domain at 500 µM, 0.5 ml/min, 4 °C; mass from a calibration curve of standards. In general terms: In gel filtration, larger molecules generally elute earlier.

A word on the Kd: it is the concentration at which binding is half-saturated. With `CCCCCCCC(=O)OC[C@H](COP(=O)(O)O[C@@H]1[C@H](O)[C@H](OP(=O)(O)O)[C@@H](O)[C@H](OP(=O)(O)O)[C@H]1O)OC(=O)CCCCCCC` [PtdIns(3,5)P2 headgroup analogue], the “1H-15N HSQC NMR titration” value on SNX25 PX domain [1] was “significant chemical shift perturbations were observed with di- and tri-phosphorylated phosphoinositides (PIP2 and PIP3)”. In addition, the Kd on SNX1 came out at 42 µM; on SNX2, 35.8 µM; at SNX25 PX domain [2], 12.1 µM; at SNX23, 11.5 µM.
Consider `CCCCCCCC(=O)OC[C@H](COP(=O)(O)O[C@H]1[C@H](O)[C@@H](OP(=O)(O)O)[C@H](OP(=O)(O)O)[C@@H](OP(=O)(O)O)[C@H]1O)OC(=O)CCCCCCC` [PtdIns(3,4,5)P3 headgroup analogue], for which the “1H-15N HSQC NMR titration” value at SNX25 PX domain [1] was “significant chemical shift perturbations were observed with di- and tri-phosphorylated phosphoinositides (PIP2 and PIP3)”.
Consider `CCCCCCCC(=O)OC[C@H](COP(=O)(O)O[C@@H]1[C@H](O)[C@H](O)[C@@H](OP(=O)(O)O)[C@H](OP(=O)(O)O)[C@H]1O)OC(=O)CCCCCCC` [PtdIns(4,5)P2 headgroup analogue], for which, on SNX25 PX domain [1], the “1H-15N HSQC NMR titration” value is “significant chemical shift perturbations were observed with di- and tri-phosphorylated phosphoinositides (PIP2 and PIP3)”.
Turning to `CCCCCCCC(=O)OC[C@H](COP(=O)(O)O[C@H]1[C@H](O)[C@@H](O)[C@H](OP(=O)(O)O)[C@@H](OP(=O)(O)O)[C@H]1O)OC(=O)CCCCCCC` [PtdIns(3,4)P2 headgroup analogue], the “1H-15N HSQC NMR titration” value on SNX25 PX domain [1] was “significant chemical shift perturbations were observed with di- and tri-phosphorylated phosphoinositides (PIP2 and PIP3)”.

B1: SNX15 PX domain (domain or fragment, human)
chain: MSRQAKDDFLRHYTVSDPRTHPKGYTEYKVTAQFISKKDPEDVKEVVVWKRYSDFRKLHGDLAYTHRNLFRRLEEFPAFPRAQVFGRFEASVIEERRKGAEDLLRFTVHIPALNNSPQLKEFFRGG
notes: source: E. coli BL21(DE3)/pLysS, purified (glutathione-Sepharose, thrombin cleavage, size exclusion chromatography); not shown: GST, N-terminal, cleaved
As usually defined, the stoichiometry N is the number of molecules, sites or subunits per partner or assembly. For B1, in data set [3], the “stoichiometry N” value was found to be 2.
